Values joined by “and” are separate entries in the source; they are usually repeats but may differ in a detail not shown here. Identical values can stand only once.
Key:
[1] = for Normal melting temperature: DTA
[2] = Molar enthalpy of transition or fusion; conditions: Crystal; DSC

COC(=O)c1ccc(C=O)cc1 [methyl 4-formylbenzoate]
[1]
Conditions | vapor or sublimation pressure [kPa]
303.1 K, Crystal, Closed cell (Static) method | 0.00069
305.04 K, Crystal, Closed cell (Static) method | 0.00086
307.04 K, Crystal, Closed cell (Static) method | 0.00109
309.04 K, Crystal, Closed cell (Static) method | 0.00137
311.05 K, Crystal, Closed cell (Static) method | 0.00173
313.01 K, Crystal, Closed cell (Static) method | 0.00216
314.99 K, Crystal, Closed cell (Static) method | 0.00268
317.07 K, Crystal, Closed cell (Static) method | 0.00335
319.02 K, Crystal, Closed cell (Static) method | 0.00412
321.01 K, Crystal, Closed cell (Static) method | 0.00511
323.02 K, Crystal, Closed cell (Static) method | 0.00635
324.99 K, Crystal, Closed cell (Static) method | 0.0078
326.93 K, Metastable liquid, Closed cell (Static) method | 0.01165
326.97 K, Crystal, Closed cell (Static) method | 0.00965
328.93 K, Metastable liquid, Closed cell (Static) method | 0.01357
328.97 K, Crystal, Closed cell (Static) method | 0.01165
330.9 K, Metastable liquid, Closed cell (Static) method | 0.01573
330.92 K, Crystal, Closed cell (Static) method | 0.01405
332.84 K, Metastable liquid, Closed cell (Static) method | 0.01823
334.84 K, Metastable liquid, Closed cell (Static) method | 0.02122
336.84 K, Closed cell (Static) method, Liquid | 0.02458
338.85 K, Closed cell (Static) method, Liquid | 0.02803
340.8 K, Closed cell (Static) method, Liquid | 0.03252
342.76 K, Closed cell (Static) method, Liquid | 0.0371
344.76 K, Closed cell (Static) method, Liquid | 0.04283
346.67 K, Closed cell (Static) method, Liquid | 0.04856
348.71 K, Closed cell (Static) method, Liquid | 0.05584
350.65 K, Closed cell (Static) method, Liquid | 0.06347
352.66 K, Closed cell (Static) method, Liquid | 0.07223
354.52 K, Closed cell (Static) method, Liquid | 0.08123
356.6 K, Closed cell (Static) method, Liquid | 0.09314
358.58 K, Closed cell (Static) method, Liquid | 0.1051
360.55 K, Closed cell (Static) method, Liquid | 0.1182
362.49 K, Closed cell (Static) method, Liquid | 0.1338
364.51 K, Closed cell (Static) method, Liquid | 0.1519
366.47 K, Closed cell (Static) method, Liquid | 0.1698
368.46 K, Closed cell (Static) method, Liquid | 0.1902
370.41 K, Closed cell (Static) method, Liquid | 0.2138
372.39 K, Closed cell (Static) method, Liquid | 0.2395
374.28 K, Closed cell (Static) method, Liquid | 0.2657
376.36 K, Closed cell (Static) method, Liquid | 0.298
378.24 K, Closed cell (Static) method, Liquid | 0.3306
380.3 K, Closed cell (Static) method, Liquid | 0.3693
382.21 K, Closed cell (Static) method, Liquid | 0.4085
384.22 K, Closed cell (Static) method, Liquid | 0.4558
386.18 K, Closed cell (Static) method, Liquid | 0.5028
388.17 K, Closed cell (Static) method, Liquid | 0.562

Conditions | Normal melting temperature [°C]
[1], Crystal | 62.1

Conditions | Molar enthalpy of transition or fusion [kcal/mol]
[2] | 5.11

COC(=O)c1ccc([N+](=O)[O-])cc1 [methyl p-nitrobenzoate]
[1]
Conditions | vapor or sublimation pressure [kPa]
319.01 K, Crystal, Closed cell (Static) method | 0.00074
321.07 K, Crystal, Closed cell (Static) method | 0.00092
322.98 K, Crystal, Closed cell (Static) method | 0.00115
325.03 K, Crystal, Closed cell (Static) method | 0.00144
326.97 K, Crystal, Closed cell (Static) method | 0.00177
328.99 K, Crystal, Closed cell (Static) method | 0.0022
330.91 K, Crystal, Closed cell (Static) method | 0.00265
332.94 K, Crystal, Closed cell (Static) method | 0.00333
334.86 K, Crystal, Closed cell (Static) method | 0.00404
336.9 K, Crystal, Closed cell (Static) method | 0.00497
338.83 K, Crystal, Closed cell (Static) method | 0.00597
340.86 K, Crystal, Closed cell (Static) method | 0.00734
342.77 K, Crystal, Closed cell (Static) method | 0.00878
344.81 K, Crystal, Closed cell (Static) method | 0.01073
346.71 K, Crystal, Closed cell (Static) method | 0.01286
348.76 K, Crystal, Closed cell (Static) method | 0.01564
350.59 K, Crystal, Closed cell (Static) method | 0.01843
352.71 K, Crystal, Closed cell (Static) method | 0.02255
354.57 K, Crystal, Closed cell (Static) method | 0.02656
356.66 K, Crystal, Closed cell (Static) method | 0.03213
358.51 K, Crystal, Closed cell (Static) method | 0.03767
360.47 K, Metastable liquid, Closed cell (Static) method | 0.05433
360.61 K, Crystal, Closed cell (Static) method | 0.04542
362.46 K, Metastable liquid, Closed cell (Static) method | 0.0615
362.47 K, Crystal, Closed cell (Static) method | 0.05331
364.43 K, Metastable liquid, Closed cell (Static) method | 0.06971
364.55 K, Crystal, Closed cell (Static) method | 0.06362
370.48 K, Closed cell (Static) method, Liquid | 0.1019
372.46 K, Closed cell (Static) method, Liquid | 0.1149
374.39 K, Closed cell (Static) method, Liquid | 0.1281
376.4 K, Closed cell (Static) method, Liquid | 0.1446
378.37 K, Closed cell (Static) method, Liquid | 0.1615
380.36 K, Closed cell (Static) method, Liquid | 0.1809
382.3 K, Closed cell (Static) method, Liquid | 0.2008
384.27 K, Closed cell (Static) method, Liquid | 0.2241
386.24 K, Closed cell (Static) method, Liquid | 0.2502
388.24 K, Closed cell (Static) method, Liquid | 0.2792
390.19 K, Closed cell (Static) method, Liquid | 0.3091
392.19 K, Closed cell (Static) method, Liquid | 0.3449
394.11 K, Closed cell (Static) method, Liquid | 0.3796
396.19 K, Closed cell (Static) method, Liquid | 0.4248
398.07 K, Closed cell (Static) method, Liquid | 0.4655
400.05 K, Closed cell (Static) method, Liquid | 0.5141
401.96 K, Closed cell (Static) method, Liquid | 0.5665
403.96 K, Closed cell (Static) method, Liquid | 0.6244
405.95 K, Closed cell (Static) method, Liquid | 0.6894
407.87 K, Closed cell (Static) method, Liquid | 0.7541
409.86 K, Closed cell (Static) method, Liquid | 0.8302
411.81 K, Closed cell (Static) method, Liquid | 0.9078
413.78 K, Closed cell (Static) method, Liquid | 0.9952
415.75 K, Closed cell (Static) method, Liquid | 1.088

Conditions | Normal melting temperature [°C]
[1], Crystal | 96.2

Conditions | Molar enthalpy of transition or fusion [kcal/mol]
[2] | 5.83

CNc1ccc(C(=O)OC)cc1 [methyl p-(methylamino)benzoate]
[1]
Conditions | vapor or sublimation pressure
317.09 K, Crystal, Calculated from knudsen effusion weight loss | 7.8e-05 kPa
319.16 K, Crystal, Calculated from knudsen effusion weight loss | 0.000101 kPa and 0.000103 kPa
321.19 K, Crystal, Calculated from knudsen effusion weight loss | 0.000131 kPa and 0.00013 kPa
323.08 K, Crystal, Calculated from knudsen effusion weight loss | 0.000167 kPa and 0.000165 kPa and 0.000168 kPa
325.15 K, Crystal, Calculated from knudsen effusion weight loss | 0.000213 kPa and 0.000207 kPa and 0.000215 kPa
327.18 K, Crystal, Calculated from knudsen effusion weight loss | 0.000263 kPa and 0.000266 kPa and 0.000271 kPa
329.12 K, Crystal, Calculated from knudsen effusion weight loss | 0.000338 kPa and 0.000335 kPa and 0.000341 kPa
331.22 K, Crystal, Calculated from knudsen effusion weight loss | 0.000427 kPa and 0.000425 kPa and 0.000433 kPa
332.9 K, Crystal, Closed cell (Static) method | 0.00054 kPa
333.17 K, Crystal, Calculated from knudsen effusion weight loss | 0.000537 kPa and 0.000535 kPa and 0.00054 kPa
334.88 K, Crystal, Closed cell (Static) method | 0.00068 kPa
335.09 K, Crystal, Calculated from knudsen effusion weight loss | 0.00068 kPa and 0.000688 kPa and 0.000691 kPa
336.87 K, Crystal, Closed cell (Static) method | 0.00086 kPa
337.17 K, Crystal, Calculated from knudsen effusion weight loss | 0.000869 kPa and 0.000862 kPa and 0.000855 kPa
338.87 K, Crystal, Closed cell (Static) method | 0.00108 kPa
339.18 K, Crystal, Calculated from knudsen effusion weight loss | 0.001064 kPa and 0.00106 kPa and 0.001061 kPa
340.85 K, Crystal, Closed cell (Static) method | 0.00134 kPa
342.84 K, Crystal, Closed cell (Static) method | 0.00167 kPa
344.81 K, Crystal, Closed cell (Static) method | 0.00207 kPa
346.8 K, Crystal, Closed cell (Static) method | 0.00257 kPa
348.77 K, Metastable liquid, Closed cell (Static) method | 0.00482 kPa
348.79 K, Crystal, Closed cell (Static) method | 0.00317 kPa
350.76 K, Metastable liquid, Closed cell (Static) method | 0.0056 kPa
350.81 K, Crystal, Closed cell (Static) method | 0.0039 kPa
352.75 K, Metastable liquid, Closed cell (Static) method | 0.00655 kPa
352.76 K, Crystal, Closed cell (Static) method | 0.00477 kPa
354.74 K, Crystal, Closed cell (Static) method | 0.00575 kPa
354.74 K, Metastable liquid, Closed cell (Static) method | 0.0076 kPa
356.72 K, Metastable liquid, Closed cell (Static) method | 0.00876 kPa
356.73 K, Crystal, Closed cell (Static) method | 0.00703 kPa
358.69 K, Metastable liquid, Closed cell (Static) method | 0.01017 kPa
358.71 K, Crystal, Closed cell (Static) method | 0.0085 kPa
360.67 K, Metastable liquid, Closed cell (Static) method | 0.01173 kPa
360.69 K, Crystal, Closed cell (Static) method | 0.01033 kPa
362.67 K, Metastable liquid, Closed cell (Static) method | 0.01351 kPa
364.65 K, Metastable liquid, Closed cell (Static) method | 0.01561 kPa
366.64 K, Metastable liquid, Closed cell (Static) method | 0.01788 kPa
368.55 K, Closed cell (Static) method, Liquid | 0.02015 kPa
370.6 K, Closed cell (Static) method, Liquid | 0.02331 kPa
372.58 K, Closed cell (Static) method, Liquid | 0.02669 kPa
374.55 K, Closed cell (Static) method, Liquid | 0.03049 kPa
376.53 K, Closed cell (Static) method, Liquid | 0.03459 kPa
378.5 K, Closed cell (Static) method, Liquid | 0.03935 kPa
380.51 K, Closed cell (Static) method, Liquid | 0.04446 kPa
382.47 K, Closed cell (Static) method, Liquid | 0.05044 kPa
384.46 K, Closed cell (Static) method, Liquid | 0.05682 kPa
386.45 K, Closed cell (Static) method, Liquid | 0.06435 kPa
388.41 K, Closed cell (Static) method, Liquid | 0.07241 kPa
390.4 K, Closed cell (Static) method, Liquid | 0.0815 kPa
392.35 K, Closed cell (Static) method, Liquid | 0.09154 kPa

Conditions | Normal melting temperature [°C]
[1], Crystal | 93

Conditions | Molar enthalpy of transition or fusion [kcal/mol]
[2] | 6.57

COC(=O)c1ccc(C#N)cc1 [methyl p-cyanobenzoate]
[1], Closed cell (Static) method
Conditions | vapor or sublimation pressure [kPa]
303.93 K, Crystal | 0.00066
306.95 K, Crystal | 0.00092
309.92 K, Crystal | 0.0013
312.93 K, Crystal | 0.00183
315.91 K, Crystal | 0.00252
318.88 K, Crystal | 0.00347
321.94 K, Crystal | 0.00479
324.93 K, Crystal | 0.00649
327.89 K, Crystal | 0.00872
330.89 K, Crystal | 0.01165
333.86 K, Crystal | 0.01562
336.84 K, Crystal | 0.02058
339.83 K, Liquid | 0.02686
342.81 K, Liquid | 0.0331
345.8 K, Liquid | 0.04054
348.76 K, Liquid | 0.04932
351.75 K, Liquid | 0.06007
354.72 K, Liquid | 0.07314
357.79 K, Liquid | 0.08912
360.66 K, Liquid | 0.1059
363.64 K, Liquid | 0.1276
366.47 K, Liquid | 0.1508
369.42 K, Liquid | 0.1793
372.4 K, Liquid | 0.2131
375.39 K, Liquid | 0.2508
378.3 K, Liquid | 0.2957
381.25 K, Liquid | 0.3487
384.19 K, Liquid | 0.4061
387.18 K, Liquid | 0.4767
390.14 K, Liquid | 0.5554
393.05 K, Liquid | 0.644

Conditions | Normal melting temperature [°C]
[1], Crystal | 65.1

Conditions | Molar enthalpy of transition or fusion [kcal/mol]
[2] | 5.21

Source: the NIST ThermoML archive (doi:10.1021/acs.jced.5b00978)
